# In patent US10064858B2, “Methods and compositions for treating bacterial infections with iron chelators” (THE UNITED STATES OF AMERICA, AS REPRESENTED BY THE …, priority 2011, dated 2018):
# Where two headings read alike, the source gives them in different places.
# Columns and labels:
# Format in all cases: cell-based
# [1] = test system: multi-drug resistant bacterial species; assay: Checkerboard, synergy with rifampin (summary)
# Source text: Drug interactions were initially evaluated with the “checkerboard” microdilution design, which provided a matrix of all drug combinations assayed in terms of fractions of the previously determined MIC. The checkerboard microdilution design is described in R. J. Tallarida, “Drug Synergism: Its Detection and Applications,” Journal of Pharmacology and Experimental Therapeutics, 865-872 (2001); and in R. L. White, et al., (1996), supra. FIGS. 39A and 39B show the wellplates having different concentrations of iron chelator and antibiotic, as labeled along the x-axis and y-axis.
# The checkerboard assay was used to asses other combinations of iron chelators and antibiotics. The fractional inhibitory concentration index (FIC), which was calculated as follows: FIC=(MIC A in combination/MIC A)+(MIC B in combination/MIC B). Interaction was defined as synergistic if the FIC was <1.0, preferably <0.5, no interaction if the FIC was >1.0 and <4.0, and antagonistic if the FIC was >4.0.
# The assay was run against the multi-drug resistant bacterial species AB 19606, AB 17978, KP ndm, PA PAO1, PA 27853, EC 35718, and EC 43888. Blank spaces indicate concentrations not tested. […] Against the species PA PAO1 and PA 27853, all the antibiotics except for Ami.
# [2] = test system: AB5075 a MDR-clinical isolate of A. baumannii; assay: Time-kill assay in CAMHB; details: for time-kill course of CFU/mL: CAMHB, 24 hours (FIG. 8A); for effect on CFU/ml (time-kill, FIG. 13): 2 and 6 hours
# Description: Reductions in colony forming units (CFU)/mL were determined over time (time-kill assay) after exposure to VK28 and deferiprone (DFP), the two iron chelators that performed best in MIC assays when compared to controls. To better represent the iron content found in the human body, MIC and time-kill assays were also determined in minimal media and tissue culture media. Time-Kill assays were performed as previously described in G. P. Neupane et al., “In vitro time-kill activities of ciprofloxacin alone and in combination with the iron chelator deferasirox against Vibrio vulnificus,” European Journal of Clinical Microbiology and Infectious Diseases, 407-410 (2010); and R. L. White, et al., “Comparison of Three Different In Vitro Methods of Detecting synergy: Time-Kill, Checkerboard, and E test,” Journal of Antimicrobial Agents and Chemotherapy, 1914-1918 (1996). Initial inocula, for example 1×10^6 CFU/mL or 1×10^7 CFU/mL were challenged with iron chelator with and/or without an antibiotic. Cells were allowed to grow in CAMHB at 37° C. for 24 hours. Time-kill results were analyzed by determining the change in log 10 numbers of CFU/ml at 0, 6, and 24 h, compared to counts at 0 h. Antimicrobials were considered bactericidal at the lowest concentration that reduced the size of the original inoculum by >3 log 10 CFU/ml (99.9%) over each of the time periods and were considered bacteriostatic if the inoculum's size was reduced by 0 to <3 log 10 CFU/ml.
# (§1) In this example, time-kill assays were performed as described in Example 9 using Apo6619 as the iron chelator against AB5075 (MRSN959), the MDR-clinical isolate of A. baumannii. The initial inocula was 1×10^6 CFU/mL, and were challenged with 0.5×MIC, 1×MIC and 2×MIC of Apo6619. Time-kill results were analyzed by determining the change in log 10 numbers of CFU/mL at 0, 2 and 4 hours.
# as §1, with “VK28 or DFP” for “Apo6619”, “AB5075,” for “AB5075 (MRSN959),”, “either VK28 or DFP.” for “Apo6619.”, “at” for “at 0,”, “6” for “4”
# [3] = test system: A. baumannii AB 19606, AB 17978; assay: Checkerboard assay, chelator with antibiotic (FIC); details: for checkerboard interaction: AB19606
# Source text: Drug interactions were initially evaluated with the “checkerboard” microdilution design, which provided a matrix of all drug combinations assayed in terms of fractions of the previously determined MIC. The checkerboard microdilution design is described in R. J. Tallarida, “Drug Synergism: Its Detection and Applications,” Journal of Pharmacology and Experimental Therapeutics, 865-872 (2001); and in R. L. White, et al., (1996), supra. FIGS. 39A and 39B show the wellplates having different concentrations of iron chelator and antibiotic, as labeled along the x-axis and y-axis. […] The checkerboard assay was used to asses other combinations of iron chelators and antibiotics. The fractional inhibitory concentration index (FIC), which was calculated as follows: FIC=(MIC A in combination/MIC A)+(MIC B in combination/MIC B). […] Blank spaces indicate concentrations not tested. […] Against the species PA PAO1 and PA 27853, all the antibiotics except for Ami.
# [4] = test system: clinical isolates of A. baumannii; assay: MIC for clinical isolates in RPMI (low iron) media (Table 4); design: key to MIC of Iron Chelators: NG = no growth in table 4; details: for MIC: Acinetobacter baumannii
# Description: […] […] Tests were performed in triplicate. MIC of iron chelators were determined for noscomial ESKAPE pathogens.
# For a number of strains, the iron chelators produced no growth of bacteria (NG).
# [5] = AB 17978, in combination with Amikacin
# [6] = AB 17978, in combination with Cefotaxine
# [7] = AB 17978, in combination with Colisitin (Colistin)
# [8] = AB 17978, in combination with Doxycycline
# [9] = AB 17978, in combination with Rifampin
# [10] = AB 19606, in combination with Amikacin
# [11] = AB 19606, in combination with Cefotaxine
# [12] = AB 19606, in combination with Colisitin (Colistin)
# [13] = AB 19606, in combination with Doxycycline
# [14] = AB 19606, in combination with Rifampin
# [15] = AB3638, read-out: MIC of Iron Chelators
# [16] = AB3806, read-out: MIC of Iron Chelators
# [17] = AB4025, read-out: MIC of Iron Chelators
# [18] = AB4026, read-out: MIC of Iron Chelators
# [19] = AB4027, read-out: MIC of Iron Chelators
# [20] = AB4052, read-out: MIC of Iron Chelators
# [21] = AB4269, read-out: MIC of Iron Chelators
# [22] = AB4448, read-out: MIC of Iron Chelators
# [23] = AB4456, read-out: MIC of Iron Chelators
# [24] = AB4490, read-out: MIC of Iron Chelators
# [25] = AB4498, read-out: MIC of Iron Chelators
# [26] = AB4795, read-out: MIC of Iron Chelators
# [27] = AB4857, read-out: MIC of Iron Chelators
# [28] = AB4878, read-out: MIC of Iron Chelators
# [29] = AB4932, read-out: MIC of Iron Chelators
# [30] = AB4957, read-out: MIC of Iron Chelators
# [31] = AB4991, read-out: MIC of Iron Chelators
# [32] = AB5001, read-out: MIC of Iron Chelators
# [33] = AB5075, read-out: MIC of Iron Chelators
# [34] = AB5197, read-out: MIC of Iron Chelators
# [35] = AB5256, read-out: MIC of Iron Chelators
# [36] = AB5674, read-out: MIC of Iron Chelators
# [37] = AB5711, read-out: MIC of Iron Chelators
compound,measurement,setting,value
"CNC(=O)c1c(O)c(=O)cc(C)n1C1CC1 [Apo6619, 1-cyclopropyl-3-hydroxy-6-methyl-4-oxo-1,4-dihydro-pyridine-2-carboxylic acid methylamide]","synergy with rifampin, checkerboard",[1],moderate degrees of synergy
same,time-kill effect,"[2]; 0.5×MIC, 1×MIC and 2×MIC, 0, 2 and 4 hours",bactericidal (considered bactericidal at the lowest concentration that reduced the size of the original inoculum by >3 log 10 CFU/ml (99.9%))
same,FIC,[3]; [5],0.75
same,FIC,[3]; [6],0.75
same,FIC,[3]; [7],0.75
same,FIC,[3]; [8],1.25
same,FIC,[3]; [9],0.75
same,FIC,[3]; [10],1.25
same,FIC,[3]; [11],1.25
same,FIC,[3]; [12],1.25
same,FIC,[3]; [13],2.25
same,FIC,[3]; [14],0.75
same,MIC of Iron Chelators,[4]; AB967,NG
same,MIC of Iron Chelators,[4]; AB2828,NG
same,MIC of Iron Chelators,[4]; AB3340,NG
same,MIC of Iron Chelators,[4]; AB3560,NG
same,MIC of Iron Chelators,[4]; AB3927,NG
same,MIC,[4]; [15],250 µg/mL
same,MIC,"[4]; AB3785, read-out: MIC of Iron Chelators",125 µg/mL
same,MIC,[4]; [16],250 µg/mL
same,MIC,"[4]; AB3917, read-out: MIC of Iron Chelators",250 µg/mL
same,MIC,[4]; [17],250 µg/mL
same,MIC,[4]; [18],250 µg/mL
same,MIC,[4]; [19],250 µg/mL
same,MIC,[4]; [20],250 µg/mL
same,MIC,[4]; [21],125 µg/mL
same,MIC,[4]; [22],250 µg/mL
same,MIC,[4]; [23],250 µg/mL
same,MIC,[4]; [24],250 µg/mL
same,MIC,[4]; [25],250 µg/mL
same,MIC,[4]; [26],250 µg/mL
same,MIC,[4]; [27],250 µg/mL
same,MIC,[4]; [28],250 µg/mL
same,MIC,[4]; [29],250 µg/mL
same,MIC,[4]; [30],250 µg/mL
same,MIC,[4]; [31],125 µg/mL
same,MIC,[4]; [32],250 µg/mL
same,MIC,[4]; [33],250 µg/mL
same,MIC,[4]; [34],250 µg/mL
same,MIC,[4]; [35],250 µg/mL
same,MIC,[4]; [36],250 µg/mL
same,MIC,[4]; [37],250 µg/mL
"Cc1c(O)c(=O)ccn1C [ApoL1, 3-hydroxy-1,2-dimethyl-4(1H)-pyridone]","synergy with rifampin, checkerboard",[1],moderate degrees of synergy
same,time-kill course of CFU/mL,[2]; 0.5×MIC,reduced level of CFU/ml at 2 and 6 hours but did increase in CFU at 24 hours to levels as seen in the untreated sample
same,"effect on CFU/ml (time-kill, FIG. 13)",[2]; 1×MIC,slight inhibitory effect
same,time-kill course of CFU/mL,[2]; 1×MIC,reduced level of CFU/ml at 2 and 6 hours but did increase in CFU at 24 hours to levels as seen in the untreated sample
same,"effect on CFU/ml (time-kill, FIG. 13)",[2]; 2×MIC,stronger inhibitory effect
same,time-kill course of CFU/mL,[2]; 2×MIC,did not have a substantial increase in CFU/ml over the 24 hour period
same,FIC,[3]; [5],1.25
same,FIC,[3]; [6],1.25
same,FIC,[3]; [7],1.25
same,FIC,[3]; [8],1.25
same,FIC,[3]; [9],0.75
same,FIC,[3]; [10],1.25
same,FIC,[3]; [11],1.25
same,FIC,[3]; [12],1.25
same,FIC,[3]; [13],2.25
same,FIC,[3]; [14],0.75
same,checkerboard interaction,[3]; with doxycycline (FIG. 39B),indifference
same,checkerboard interaction,[3]; with rifampin (FIG. 39A),moderate synergy
same,MIC of Iron Chelators,[4]; AB967,NG
same,MIC of Iron Chelators,[4]; AB2828,NG
same,MIC of Iron Chelators,[4]; AB3340,NG
same,MIC of Iron Chelators,[4]; AB3560,NG
same,MIC of Iron Chelators,[4]; AB3785,NG
same,MIC of Iron Chelators,[4]; AB3917,NG
same,MIC of Iron Chelators,[4]; AB3927,NG
same,MIC,[4]; [15],125 µg/mL
same,MIC,[4]; [16],125 µg/mL
same,MIC,[4]; [17],125 µg/mL
same,MIC,[4]; [18],125 µg/mL
same,MIC,[4]; [19],125 µg/mL
same,MIC,[4]; [20],125 µg/mL
same,MIC,[4]; [21],125 µg/mL
same,MIC,[4]; [22],125 µg/mL
same,MIC,[4]; [23],125 µg/mL
same,MIC,[4]; [24],125 µg/mL
same,MIC,[4]; [25],125 µg/mL
same,MIC,[4]; [26],125 µg/mL
same,MIC,[4]; [27],125 µg/mL
same,MIC,[4]; [28],250 µg/mL
same,MIC,[4]; [29],64 µg/mL
same,MIC,[4]; [30],125 µg/mL
same,MIC,[4]; [31],125 µg/mL
same,MIC,[4]; [32],125 µg/mL
same,MIC,[4]; [33],125 µg/mL
same,MIC,[4]; [34],125 µg/mL
same,MIC,[4]; [35],125 µg/mL
same,MIC,[4]; [36],125 µg/mL
same,MIC,[4]; [37],64 µg/mL
